# Values quoted from earlier work as cited in patent publication US11642339B2 (THERAVANCE BIOPHARMA R&D IP, LLC, priority 2017, dated 2023).
# Key:
# [1] = tested on: patients on daily therapy; details: long-term use; cited from earlier work
# [2] = tested on: patients with functional dyspepsia; details: Japan, placebo 35%; cited from earlier work
# [3] = tested on: patients with functional dyspepsia; details: after 4 weeks of treatment; placebo 12.7%; cited from earlier work
structure (smiles),measurement,setting,value
CCN(CC)CCNC(=O)c1cc(Cl)c(N)cc1OC [metoclopramide],patients with adverse CNS effects,[1],up to 30%
COc1cc(O)c(C(=O)Nc2nc(C(=O)NCCN(C(C)C)C(C)C)cs2)cc1OC [Acotiamide],patients with symptom improvement,[2],52%
O=C1[C@@H]2[C@H]3CC[C@H](C3)[C@@H]2C(=O)N1CCCCN1CCN(c2ncccn2)CC1 [tandospirone],response rate,[3],31.5%
